Where a SMILES comes first, the peptide text is derived from it. Bridges are numbered along the chain shown (N, C = ends). Where no end group is shown, it is not given here. [ ]: non-standard residue; d: D form. Dab = NCC[C@H](N)C(=O)O
Tests used:
carboxypeptidase A = target: T1, carboxypeptidase A (Bos taurus, UniProt P00730); experiment: Hydrolysis kinetics in carboxypeptidase A solution; format: in vitro ADME, bovine; details: 50 mM phosphate buffer pH 7.4, 37° C., carboxypeptidase A 1 U/ml
T1 construct: purchased Sigma, UK type I (catalogue number not given); host or cells: bovine pancreas
T1 sequence (P00730 111-419): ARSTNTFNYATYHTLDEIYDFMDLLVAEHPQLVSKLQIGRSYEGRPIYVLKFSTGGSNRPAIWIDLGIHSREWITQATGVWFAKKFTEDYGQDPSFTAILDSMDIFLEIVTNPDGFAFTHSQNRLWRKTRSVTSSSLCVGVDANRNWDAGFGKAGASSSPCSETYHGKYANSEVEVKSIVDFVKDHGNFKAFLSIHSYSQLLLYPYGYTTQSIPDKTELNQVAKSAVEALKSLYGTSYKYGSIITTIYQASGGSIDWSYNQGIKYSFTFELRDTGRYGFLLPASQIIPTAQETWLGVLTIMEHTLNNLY
Protocol: (§1) Carboxypeptidase A (EC 3.4.17.1) type I from bovine pancreas, leucine aminopeptidase (EC 3.4.11.1) type III-CP from porcine kidney, α-chymotrypsin (EC […]) from bovine pancreas, and pepsin A (EC 3.4.23.1) from porcine stomach mucosa […] were obtained from Sigma, UK.
(§2) Gradient HPLC analysis of samples from in vitro kinetic measurements performed as described below was performed using a Hewlett Packard HP 1100 HPLC system consisting of a HP 1100 Binary Pump, a HPI 100 Autosampler, a HPI 100 Column Thermostat and a HP 1100 Variable Wavelength Detector. A Merck LiChroCART column (125×4 mm I.D.) and a LiChroCART precolumn (4×4 mm I.D.) packed with Lichrospher RP-18 (5 .μum particles) was used. The column was kept at 25° C. or 75° C. and the column effluent was measured by UV detection at 215 run. Separation of the peptide conjugates or the native peptides from degradation products and constituents of the reaction solutions was accomplished using gradient elution of the column with mixtures of mobile phase A (0.1 vol % TFA in water) and mobile phase B (0.085 vol % TFA in acetonitrile) at a flow rate of 1 ml/min.
(§3) The degradation of the peptide conjugate and the corresponding native peptide were studied at 37° C. in a 50 mM phosphate buffer solution at pH 7.4 containing leucine arninopeptidase (25 U/ml) or carboxypeptidase A (1 or 25 U/ml). Experiments were initiated by addition of an aliquot (100 μl) of a stock solution (1 mg/ml) of the peptide conjugate or the native peptide to 900 μl preheated enzyme solution giving a final concentration of ˜0.1 mg/ml (10^−5-10^−4M) of the peptide conjugate or the native peptide. The peptide/enzyme solution was kept at 37° C. using a SHT200D block heater from Stuart Scientific. At appropriate time intervals, samples of 100 μl were withdrawn from the peptide/enzyme solution, mixed thoroughly with 20 μl 25% TFA in acetonitrile in order to stop the enzymatic degradation process and analysed by HPLC as described above. Half-lives (t1/2) for the peptide conjugate and the corresponding native peptide in the enzyme solutions were calculated from plots of the natural logarithm to the concentration of the residual peptide (HPLC peak heights) against time using the formula t/2=1/kobs×ln(2), where kobs is the apparent first-order rate constant for the observed degradation.

leucine aminopeptidase = target: T2, leucine aminopeptidase (Sus scrofa, UniProt P28839); experiment: Hydrolysis kinetics in leucine aminopeptidase solution; format: in vitro ADME, porcine; details: 50 mM phosphate buffer pH 7.4, 37° C., leucine aminopeptidase 25 U/ml; for half-life: pig
T2 construct: purchased Sigma, UK type III-CP (catalogue number not given); host or cells: porcine kidney
T2 sequence (P28839 1-519): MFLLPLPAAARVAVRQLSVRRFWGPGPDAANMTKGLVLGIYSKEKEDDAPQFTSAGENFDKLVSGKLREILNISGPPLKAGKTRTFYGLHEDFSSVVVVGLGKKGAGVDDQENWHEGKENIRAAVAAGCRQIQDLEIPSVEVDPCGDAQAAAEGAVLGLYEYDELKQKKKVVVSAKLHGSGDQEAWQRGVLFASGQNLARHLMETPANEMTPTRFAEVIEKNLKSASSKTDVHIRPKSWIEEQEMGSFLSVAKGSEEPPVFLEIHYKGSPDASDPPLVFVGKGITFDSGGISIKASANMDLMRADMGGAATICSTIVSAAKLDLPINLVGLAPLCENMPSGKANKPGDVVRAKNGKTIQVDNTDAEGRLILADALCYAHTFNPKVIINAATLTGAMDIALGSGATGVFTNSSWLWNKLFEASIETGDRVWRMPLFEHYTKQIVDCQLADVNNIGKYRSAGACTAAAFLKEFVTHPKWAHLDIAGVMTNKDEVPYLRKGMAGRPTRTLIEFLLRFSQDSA
Protocol: as §1, §2, §3

| Compound | half-life (carboxypeptidase A) [h] | pseudo first-order rate constant for the degradation (carboxypeptidase A) [min⁻¹] | pseudo first-order rate constant for the degradation (leucine aminopeptidase) [min⁻¹] | half-life (leucine aminopeptidase) [h] |
| --- | --- | --- | --- | --- |
| H-RPKPQQFFGLMKKKKKK-NH2 [Substance P-(Lys)6-NH2, H-Arg-Pro-Lys-Pro-Gln-Gln-Phe-Phe-Gly-Leu-Met-Lys6 -NH2] | 2.1 | 0.0055 | 0.011 | 1.1 |
| KKKKKKYGGFLKKKKKK [(Lys)6-Leu-Enkephalin-(Lys)6-OH, H-Lys6-Tyr-Gly-Gly-Phe-Leu-Lys6 OH] | – | – | – | > 100 |
| WAGGDASGE [DSIP, H-Trp-Ala-Gly-Gly-Asp-Ala-Ser-Gly-GIu-OH, reference compound] | – | – | – | < 0.333 |
| CC(C)C[C@@H]1NC(=O)[C@@H]2CCCN2C(=O)CNC(=O)[C@H](Cc2ccccc2)NC(=O)[C@H](Cc2c[nH]cn2)NC(=O)[C@@H](NC(=O)[C@H](CO)NC(=O)[C@H](Cc2ccc(O)cc2)NC(=O)[C@@H](NC(=O)CNC(=O)CNC(=O)[C@H](CCCCN)NC(=O)[C@H](CCCCN)NC(=O)[C@H](CCCCN)NC(=O)[C@H](CCCCN)NC(=O)[C@H](CCCCN)NC(=O)[C@@H](N)CCCCN)[C@@H](C)O)CSSC[C@@H](C(=O)N[C@@H](CCCCN)C(=O)N2CCC[C@H]2C(=O)N[C@@H](CCC(N)=O)C(=O)NCC(=O)NCC(=O)N[C@@H](CCCCN)C(=O)N[C@@H](CCCCN)C(=O)N[C@@H](CCCCN)C(=O)N[C@@H](CCCCN)C(=O)N[C@@H](CCCCN)C(=O)N[C@@H](CCCCN)C(=O)O)NC(=O)[C@H](C(C)C)NC(=O)[C@H](Cc2c[nH]c3ccccc23)NC(=O)[C@H]([C@@H](C)O)NC1=O [(Lys)6-EMP-1-(Lys)6-OH, H-(Lys)6-Gly-Gly-Thr-Tyr-Ser-Cys-His-Phe-Gly-Pro-Leu-Thr -Trp-Val-Cys-Lys-Pro-Gln-Gly-Gly-(Lys)6-OH] (H-KKKKKKGGTYSCHFGPLTWVCKPQGGKKKKKK-OH; disulfide 12-21) | – | – | – | > 100 |
| H-WAGGDASGEKEKEKE-OH [DSIP-(Lys-Glu)3-OH, H-Trp-Ala-Gly-Gly-Asp-Ala-Ser-Gly-Glu-(Lys-Glu)3-OH] | – | – | – | 2.42 |
| CC[C@H](C)[C@H](NC(=O)[C@H](Cc1ccccc1)NC(=O)[C@H](CCC(=O)O)NC(=O)[C@H](CCCCN)NC(=O)[C@H](C)NC(=O)[C@H](C)NC(=O)[C@H](CCC(N)=O)NC(=O)CNC(=O)[C@H](CCC(=O)O)NC(=O)[C@H](CC(C)C)NC(=O)[C@H](Cc1ccc(O)cc1)NC(=O)[C@H](CO)NC(=O)[C@H](CO)NC(=O)[C@@H](NC(=O)[C@H](CC(=O)O)NC(=O)[C@H](CO)NC(=O)[C@@H](NC(=O)[C@H](Cc1ccccc1)NC(=O)[C@@H](NC(=O)CNC(=O)[C@H](CCC(=O)O)NC(=O)[C@H](C)NC(=O)[C@@H](N)Cc1c[nH]cn1)[C@@H](C)O)[C@@H](C)O)C(C)C)C(=O)N[C@@H](C)C(=O)N[C@@H](Cc1c[nH]c2ccccc12)C(=O)N[C@@H](CC(C)C)C(=O)N[C@H](C(=O)N[C@@H](CCCCN)C(=O)NCC(=O)N[C@@H](CCCNC(=N)N)C(=O)O)C(C)C [GLP-1(7-36)(Human)-OH, H-His-Ala-Glu-Gly-Thr-Phe-Thr-Ser-Asp-Val-Ser-Ser-Tyr-Leu -Glu-Gly-Gln-Ala-Ala-Lys-Glu-Phe-Ile-Ala-Trp-Leu-Val-Lys-Gly-Arg-OH, reference compound] | 2.47 | 0.0047 | – | 0.367 |
| H-YGGFLKEEEKK-OH [Leu-Enkephalin-Lys-(Glu)3-(Lys)2-OH, H-Tyr-Gly-Gly-Phe-Leu-Lys-(Glu)3-(Lys)2-OH] | 14.4 | 0.0008 | 0.12 | 0.095 |
| CC(C)C[C@H](NC(=O)[C@H](Cc1ccccc1)NC(=O)CNC(=O)CNC(=O)[C@@H](N)Cc1ccc(O)cc1)C(=O)N[C@@H](CCN)C(=O)N[C@@H](CCN)C(=O)N[C@@H](CCN)C(=O)N[C@@H](CCN)C(=O)N[C@@H](CCN)C(=O)N[C@@H](CCN)C(=O)O [Leu-Enkephalin-(Dbu)6-OH, H-Tyr-Gly-Gly-Phe-Leu-(Dbu)6-OH] (H-YGGFL[Dab][Dab][Dab][Dab][Dab][Dab]-OH) | 23.1 | 0.005 | 0.025 | 0.467 |
| H-KKKKKKYGGFL-OH [(Lys)6-Leu-Enkephalin-OH, H-Lys6 Tyr-Gly-Gly-Phe-Leu-OH] | – | – | 0.026 | 0.45 |
| CC(C)C[C@@H]1NC(=O)[C@@H]2CCCN2C(=O)CNC(=O)[C@H](Cc2ccccc2)NC(=O)[C@H](Cc2c[nH]cn2)NC(=O)[C@@H](NC(=O)[C@H](CO)NC(=O)[C@H](Cc2ccc(O)cc2)NC(=O)[C@@H](NC(=O)CNC(=O)CNC(=O)[C@H](CCCCN)NC(=O)[C@H](CCCCN)NC(=O)[C@H](CCCCN)NC(=O)[C@H](CCCCN)NC(=O)[C@H](CCCCN)NC(=O)[C@@H](N)CCCCN)[C@@H](C)O)CSSC[C@@H](C(=O)N[C@@H](CCCCN)C(=O)N2CCC[C@H]2C(=O)N[C@@H](CCC(N)=O)C(=O)NCC(=O)NCC(=O)O)NC(=O)[C@H](C(C)C)NC(=O)[C@H](Cc2c[nH]c3ccccc23)NC(=O)[C@H]([C@@H](C)O)NC1=O [(Lys)6-EMP-1-OH, H-(Lys)6-Gly-Gly-Thr-Tyr-Ser-Cys-His-Phe-Gly-Pro-Leu -Thr-Trp-Val-Cys-Lys-Pro-Gln-Gly-Gly-OH] (H-KKKKKKGGTYSCHFGPLTWVCKPQGG-OH; disulfide 12-21) | – | – | – | > 24 |
| CC[C@H](C)[C@H](NC(=O)[C@H](Cc1ccccc1)NC(=O)[C@H](CCC(=O)O)NC(=O)[C@H](CCCCN)NC(=O)[C@H](C)NC(=O)[C@H](C)NC(=O)[C@H](CCC(N)=O)NC(=O)CNC(=O)[C@H](CCC(=O)O)NC(=O)[C@H](CC(C)C)NC(=O)[C@H](Cc1ccc(O)cc1)NC(=O)[C@H](CO)NC(=O)[C@H](CO)NC(=O)[C@@H](NC(=O)[C@H](CC(=O)O)NC(=O)[C@H](CO)NC(=O)[C@@H](NC(=O)[C@H](Cc1ccccc1)NC(=O)[C@@H](NC(=O)CNC(=O)[C@H](CCC(=O)O)NC(=O)[C@H](C)NC(=O)[C@@H](N)Cc1c[nH]cn1)[C@@H](C)O)[C@@H](C)O)C(C)C)C(=O)N[C@@H](C)C(=O)N[C@@H](Cc1c[nH]c2ccccc12)C(=O)N[C@@H](CC(C)C)C(=O)N[C@H](C(=O)N[C@@H](CCCCN)C(=O)NCC(=O)N[C@@H](CCCNC(=N)N)C(=O)N[C@@H](CCCCN)C(=O)N[C@@H](CCCCN)C(=O)N[C@@H](CCCCN)C(=O)N[C@@H](CCCCN)C(=O)N[C@@H](CCCCN)C(=O)N[C@@H](CCCCN)C(=O)O)C(C)C [GLP-1(7-36)(Human)-(Lys)6-OH, H-His-Ala-Glu-Gly-Thr-Phe-Thr-Ser-Asp-Val-Ser-Ser-Tyr-Leu -Glu-Gly-Gln-Ala-Ala-Lys-Glu-Phe-Ile-Ala-Trp-Leu-Val-Lys-Gly-Arg-(Lys)6-OH] | 1.45 | 0.008 | 0.013 | 0.883 |
